Test results: patent US20120029047A1, “USE OF HDAC INHIBITORS FOR THE TREATMENT OF BONE DESTRUCTION” (priority 2007, published 2012)

Experiments:
[1] = test system: MM1S cells; experiment: MM1S disseminated multiple myeloma model, tumor burden by bioluminescence; type: in vivo, SCID-beige mice
Protocol: Female SCID-beige mice were injected with MM1S cells (2×10^6) intravenously (iv) into the tail vein on Day 0. Treatment was initiated on Day 10 when the average tumor burden, as determined by bioluminescence, reached approximately 8.0×10^5-1.0×10^6 photons per second. All treatment groups consisted of 8 animals. […] Tumor burden and body weights were recorded once a week during the active dosing period. In vivo micro-computed tomography (microCT) images were acquired in live animals on day 32 and 33 (Study #1) or Day 34 and 35 (Study #2). In the second study, animals were individually monitored until achievement of clinical endpoint. Treatments were started on Day 10 post-iv tail implantation (2.0 million cells/animal). […] Vehicle control (D5W) was administered ip times per week, for 3 weeks. Initial group size: 8 animals. Final efficacy data and body weight change were calculated 72 hours post-last dose. Treatments were started on Day 10 post-iv tail implantation (2.0 million cells/animal). […] Vehicle control (D5W) was administered ip times per week, for 3 weeks. Initial group size: 8 animals. With respect to FIG. 2, treatments were started on Day 11 post-iv tail implantation (2.0 million cells/animal). NVP-LBH589-CU was administered ip, at 15 mg/kg (A), or 10 and 20 mg/kg (B), 5 times a week (qd×5/wk) for 4 weeks. Vehicle control (D5W) was administered ip 5 times a week (qd×5/wk), for 4 weeks. Bortezomib was administered iv, at 0.2 mg/kg, once per week (qwk) or 1 mg/kg, twice per week in Study #0879 for 4 weeks (biwk) (B). Initial group size: 8 animals. Final efficacy data are shown in the A panel for Study #0879 and B panel for Study #0942. Body weight changes were calculated on 24 hours post-last dose for each study (right panels).

[2] = test system: MM1S cells; experiment: Time to clinical endpoint in MM1S model (Study #0942); type: in vivo, SCID-beige mice; conditions: for Median Time to Clinical Endpoint: endpoint = clinical score of 3
Protocol: Female SCID-beige mice were injected with MM1S cells (2×10^6) intravenously (iv) into the tail vein on Day 0. Treatment was initiated on Day 10 when the average tumor burden, as determined by bioluminescence, reached approximately 8.0×10^5-1.0×10^6 photons per second. All treatment groups consisted of 8 animals. […] Tumor burden and body weights were recorded once a week during the active dosing period. In vivo micro-computed tomography (microCT) images were acquired in live animals on day 32 and 33 (Study #1) or Day 34 and 35 (Study #2). In the second study, animals were individually monitored until achievement of clinical endpoint. […] Each animal was monitored daily for progression of signs of disease progression, including mobility and general health. Animals were scored on a clinical scale from 0-4. […] These animals were removed from analysis due to treatment related deaths. […] The median time to endpoint for the vehicle treated animals was 37 days.

[3] = test system: MM1S tumor bearing mice; experiment: In vivo microCT analysis of tibial trabecular bone density; design: species or system SCID-beige mice; conditions: for increase in median trabecular bone density: after 4 weeks of treatment
Excerpt: (§1) Animals were anesthetized with 2% isoflurane mixed with oxygen (2 L/min.) and then placed in a mouse holder (custom made, Peter Ingold, NIBR Basel) specifically designed to align both tibiae and mounted into an in vivo high resolution microCT scanner (VivaCT40, Scanco, Switzerland). To insure correct positioning of the mouse, a scout view of bilateral tibia bones and knee joints was taken and the region of interest (ROI, 2.23 mm in length) was positioned to start at the growth plate extending distally over the area of the trabecular bone (FIG. 3). The scanner was set to a nominal isotropic voxel size of 21 μm, referred to as medium/standard resolution. The X-ray tube was operated at 55 kVp and 145 mA with a focal spot size of 5 μm. Five hundred projection images were acquired per scan with an integration time of 180 ms. Tomographic images were reconstructed on a VMS cluster (HP Alpha, HP, Palo Alto, USA) in 1024×1024 pixel matrices using a conebeam back projection procedure resulting in 315 axial slices.
(§2) For determination of trabecular and cortical bone features, a 2.23 mm region of interest was placed to start at the growth plate extending distally. 106 axial slices were obtained using a μ-CT VivaCT40Scanner (SCANCO, Switzerland) with 55 kv, 145 mA, 180 ms integration time and 21 μm resolution. Trabecular bone density (BV/TV) was measured in a 0.735 mm region of a tibia (9 slices proximal and 25 slices distal from the tibial tuberosity) using SCANCO software (SCANCO, Switzerland) with a threshold of 275 is used to define calcified bone volume (BV). Cortical bone density (BV/TV) was measured in a 1.5 mm region of a tibia (15 slices proximal and 55 slices distal from the tibial tuberosity) using SCANCO software (SCANCO Switzerland) with a threshold of 275. Three-dimensional analysis was performed on the determined regions utilizing the SCANCO operational software. All treatment groups were scanned over the course of two days, with equal numbers of animals from each treatment group scanned each day.
FIG. 4 describes a […] region of interest was placed to start at the growth plate extending distally. 106 axial slices were obtained using a μ-CT VivaCT40Scanner (SCANCO, Switzerland) with 55 kv, […], 180 ms integration time and 21 μm resolution. Trabecular bone density, bone volume/total volume (BV/TV), was measured in a 0.735 mm region of a tibia (10 slices proximal and 25 slices distal from the tibial tuberosity) using SCANCO software (SCANCO, Switzerland) with a threshold of 275. Cortical bone density, bone volume/total volume (BV/TV), was measured in a 1.5 mm region of a tibia (15 slices proximal and 55 slices distal from the tibial tuberosity) using SCANCO software (SCANCO Switzerland) with a threshold of 275.

[4] = test system: MM1S tumor bearing mice; experiment: In vivo microCT analysis of tibial cortical bone density; design: species or system SCID-beige mice; conditions: Study #0879, 15 mg/kg, tibia
Excerpt: as §1, with “The X-ray tube was operated at 55 kVp and 145 mA with a focal spot size of 5 μm. Five hundred projection images were acquired per scan with an integration time of 180 ms. Tomographic images were reconstructed on a VMS cluster (HP Alpha, HP, Palo Alto, USA) in 1024×1024 pixel matrices using a conebeam back projection procedure resulting in 315 axial slices.” left out
as §2, with “106 axial slices were obtained using a μ-CT VivaCT40Scanner (SCANCO, Switzerland) with 55 kv, 145 mA, 180 ms integration time and 21 μm resolution.” left out, “All treatment groups were scanned over the course of two days, with equal numbers of animals from each treatment group scanned each day.” left out

[5] = test system: TRACP5B; experiment: Serum bio-marker TRACP5B ELISA (MouseTRAP Assay); type: in vivo, mouse
Protocol: A serum marker of bone metabolism, TRACP5B, was assessed for mouse serum changes. The MouseTRAP™ Assay kit is an ELISA assay (Cat#SB-TR103, IDS Fountain Hills, Ariz.). Briefly, polyclonal […] TRACP5B antibodies are incubated in 96 well plates coated with anti-rabbit IgG. This ELISA kit is specific for mouse TRACP5B only. This assay has a reported sensitivity of 0.1 U/L.
TRACP5B serum levels were evaluated as a measure of osteoclast activity. The level of a TRACP5B was analyzed in FIG. 7 and Table 12.

[6] = Study #0879, 15 mg/kg IP qdx5, 31 days after implantation
[7] = Study #0942, 10 mg/kg IP qdx5, 35 days after implantation
[8] = Study #0942, 20 mg/kg IP qdx5, 35 days after implantation

Cc1[nH]c2ccccc2c1CCNCc1ccc(/C=C/C(=O)NO)cc1 [LBH589, N-hydroxy-3-[4-[[[2-(2-methyl-1H-indol-3-yl)-ethyl]-amino]methyl]phenyl]-2E-2-propenamide]
% Regression [1, 6]: None
% T/C [1, 6]: 22%
Delta Mean Tumor Burden (mean ± SEM) [1, 6]: 292.4E+6 ± 92.6E+6 photons/sec
reduction in tumor burden ([1]; Study #0879, 15 mg/kg qdX5, Day 31): ~78%
% Regression [1, 7]: None
% T/C [1, 7]: 31%
Delta Mean Tumor Burden (mean ± SEM) [1, 7]: 348.5E+6 ± 49.6E+6 photons/sec
reduction in tumor burden ([1]; Study #0942, 10 mg/kg qdX5, Day 35): ~79%
% Regression [1, 8]: None
% T/C [1, 8]: 9%
Delta Mean Tumor Burden (mean ± SEM) [1, 8]: 107.7E+6 ± 42.6E+6 photons/sec
reduction in tumor burden ([1]; Study #0942, 20 mg/kg qdX5, Day 35): ~91%
significance of reduction in tumor burden ([1]; both studies (#0879 and #0942)): statistically significant
Median Time to Clinical Endpoint ([2]; Study #0942, 10 mg/kg): 54 days
animals without symptoms of disease 80 days after implant ([2]; Study #0942, 20 mg/kg): One of the remaining six
Median Time to Clinical Endpoint ([2]; Study #0942, 20 mg/kg): 61 days
increase in mean trabecular bone density ([3]; Study #0879, 15 mg/kg, after 3 weeks of treatment): 5.5 fold
Mean Trabecular Density (BV/TV) ([3]; Study #0879, 15 mg/kg, tibia): 14.48 % BV/TV
increase in median trabecular bone density ([3]; Study #0942, 10 mg/kg): 11.8 fold
Median Trabecular Density (BV/TV) ([3]; Study #0942, 10 mg/kg, tibia): 8.23 % BV/TV
increase in median trabecular bone density ([3]; Study #0942, 20 mg/kg): 19.1 fold
Median Trabecular Density (BV/TV) ([3]; Study #0942, 20 mg/kg, tibia): 12.89 % BV/TV
Mean Cortical Density (BV/TV) [4]: 98.3%
Mean TRACP5B Serum Levels ([5]; Study #0879, 15 mg/kg): 7.1
decrease of serum levels of TRACP5B compared to vehicle ([5]; Study #0879, LBH589 alone): 41%
